Experimental data: US10562859B2, “Aryl sulfonamide compounds as carbonic anhydrase inhibitors and their therapeutic use” (SignalChem LifeSciences Corporation, priority 2015, dated 2020)

Columns and labels:
recombinant human CAIX = recombinant human CAIX (Homo sapiens, UniProt Q16790); assay: Stopped-flow CA-catalyzed CO2 hydration assay, CAIX; assay type: biochemical; settings: pH 7.4, inhibitor and enzyme pre-incubated 15 minutes at room temperature
Protocol: (§1) An Applied Photophysics stopped-flow instrument was used for assaying the CA-catalyzed CO2 hydration activity. […] The CO2 concentrations ranged from 1.7 to 17 mM for the determination of the kinetic parameters and inhibition constants. For each inhibitor, at least six traces of the initial 5-10% of the reaction were used for determining the initial velocity. The uncatalyzed rates were determined in the same manner and subtracted from the total observed rates. Stock solutions of inhibitor (10 mM) were prepared in distilled-deionized water, and dilutions up to 0.01 nM were done thereafter with distilled-deionized water. Inhibitor and enzyme solutions were pre-incubated together for 15 minutes at room temperature prior to assay in order to allow for the formation of the E-I complex. The inhibition constants were obtained by nonlinear least-squares methods using PRISM 3, whereas the kinetic parameters for the uninhibited enzymes were from Lineweaver-Burk plots, and represent the mean from at least three different determinations.

recombinant human CAXII = recombinant human CAXII (Homo sapiens, UniProt O43570); assay: Stopped-flow CA-catalyzed CO2 hydration assay, CAXII; assay type: biochemical; settings: pH 7.4, inhibitor and enzyme pre-incubated 15 minutes at room temperature
Protocol: as §1

recombinant human CAXII, sequence (O43570 25-354): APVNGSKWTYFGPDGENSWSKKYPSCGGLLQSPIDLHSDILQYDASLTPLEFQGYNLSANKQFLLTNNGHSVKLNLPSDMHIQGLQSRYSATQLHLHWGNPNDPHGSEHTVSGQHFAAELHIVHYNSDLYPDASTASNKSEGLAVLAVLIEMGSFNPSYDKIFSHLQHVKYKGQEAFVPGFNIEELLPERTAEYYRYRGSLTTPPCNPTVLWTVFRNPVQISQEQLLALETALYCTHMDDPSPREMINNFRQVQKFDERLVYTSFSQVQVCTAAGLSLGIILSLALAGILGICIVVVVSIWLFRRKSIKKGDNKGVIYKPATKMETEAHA

Ki (recombinant human CAIX) | Ki (recombinant human CAXII) | Ki (nM) CAXII (recombinant human CAXII) | Ki (nM) CAIX (recombinant human CAIX) | Structure (SMILES)
< 10 nM | < 10 nM |  |  | CC(=O)c1ccc(N2CCN(c3ccc(S(N)(=O)=O)cc3)C2=O)cc1 [Example 17, 4-(3-(4-acetylphenyl)-2-oxoimidazolidin-1-yl)benzenesulfonamide]
< 10 nM |  | ++ (“++” represents the 100 nM<Ki<10 nM) |  | NS(=O)(=O)c1ccc(N2CCN(c3ccc(Cl)cc3F)C2=O)cc1 [Example 7, 4-(3-(4-chloro-2-fluorophenyl)-2-oxoimidazolidin-1-yl)benzenesulfonamide]
< 10 nM |  | ++ (“++” represents the 100 nM<Ki<10 nM) |  | COc1cc(N2CCN(c3ccc(S(N)(=O)=O)cc3)C2=O)cc(OC)c1OC [Example 3, 4-(2-oxo-3-(3,4,5-trimethoxyphenyl)imidazolidin-1-yl)benzenesulfonamide]
< 10 nM | < 10 nM |  |  | N#Cc1ccc(N2CCN(c3ccc(S(N)(=O)=O)cc3)C2=O)cc1 [Example 16, 4-(3-(4-cyanophenyl)-2-oxoimidazolidin-1-yl)benzenesulfonamide]
 |  | ++ (“++” represents the 100 nM<Ki<10 nM) | ++ (“++” represents the 100 nM<Ki<10 nM) | NS(=O)(=O)c1ccc(N2CCN(C3CCCC3)C2=O)cc1 [Example 4, 4-(3-cyclopentyl-2-oxoimidazolidin-1-yl)benzenesulfonamide]
< 10 nM |  | ++ (“++” represents the 100 nM<Ki<10 nM) |  | NS(=O)(=O)c1ccc(N2CCN(c3ccc(Cl)c(F)c3)C2=O)cc1 [Example 27, 4-(3-(4-chloro-3-fluorophenyl)-2-oxoimidazolidin-1-yl)benzenesulfonamide]
< 10 nM | < 10 nM |  |  | NS(=O)(=O)c1ccc(N2CCN(c3ccc(N4CCOCC4)cc3F)C2=O)cc1 [Example 28.3, 4-(3-(2-fluoro-4-morpholinophenyl)-2-oxoimidazolidin-1-yl)benzenesulfonamide]
 |  | ++ (“++” represents the 100 nM<Ki<10 nM) | ++ (“++” represents the 100 nM<Ki<10 nM) | NS(=O)(=O)c1ccc(N2CCN(C3CCCCC3)C2=O)cc1 [Example 5, 4-(3-cyclohexyl-2-oxoimidazolidin-1-yl)benzenesulfonamide]
< 10 nM | < 10 nM |  |  | NS(=O)(=O)c1ccc(N2CCN(CC3CC3)C2=O)cc1 [Example 10, 4-(3-(cyclopropylmethyl)-2-oxoimidazolidin-1-yl)benzenesulfonamide]
 |  | ++ (“++” represents the 100 nM<Ki<10 nM) | ++ (“++” represents the 100 nM<Ki<10 nM) | Cc1cc(C)cc(N2CCN(c3ccc(S(N)(=O)=O)cc3)C2=O)c1 [Example 2, 4-(3-(3,5-dimethylphenyl)-2-oxoimidazolidin-1-yl)benzenesulfonamide]
< 10 nM |  | ++ (“++” represents the 100 nM<Ki<10 nM) |  | NS(=O)(=O)c1ccc(N2CCN(c3ccc(F)c(F)c3)C2=O)cc1 [Example 24, 4-(3-(3,4-difluorophenyl)-2-oxoimidazolidin-1-yl)benzenesulfonamide]
< 10 nM |  | ++ (“++” represents the 100 nM<Ki<10 nM) |  | COc1ccc(N2CCN(c3ccc(S(N)(=O)=O)cc3)C2=O)c(F)c1 [Example 25, 4-(3-(2-fluoro-4-methoxyphenyl)-2-oxoimidazolidin-1-yl)benzenesulfonamide]
< 10 nM |  | ++ (“++” represents the 100 nM<Ki<10 nM) |  | NS(=O)(=O)c1ccc(N2CCN(c3ccc(F)cc3)C2=O)cc1 [Example 21, 4-(3-(4-fluorophenyl)-2-oxoimidazolidin-1-yl)benzenesulfonamide]
< 10 nM |  | ++ (“++” represents the 100 nM<Ki<10 nM) |  | NS(=O)(=O)c1ccc(N2CCN(c3ccc(F)c(Cl)c3)C2=O)cc1 [Example 22, 4-(3-(3-chloro-4-fluorophenyl)-2-oxoimidazolidin-1-yl)benzenesulfonamide]
< 10 nM | < 10 nM |  |  | CC(C)c1ccccc1N1CCN(c2ccc(S(N)(=O)=O)cc2)C1=O [Example 11, 4-(3-(2-isopropylphenyl)-2-oxoimidazolidin-1-yl)benzenesulfonamide]
 |  | ++ (“++” represents the 100 nM<Ki<10 nM) | ++ (“++” represents the 100 nM<Ki<10 nM) | NS(=O)(=O)c1ccc(N2CCN(Cc3ccc(F)cc3)C2=O)cc1 [Example 9, 4-(3-(4-fluorobenzyl)-2-oxoimidazolidin-1-yl)benzenesulfonamide]
< 10 nM | < 10 nM |  |  | COCCOc1ccc(N2CCN(c3ccc(S(N)(=O)=O)cc3)C2=O)cc1 [Example 14, 4-(3-(4-(2-methoxyethoxy)phenyl)-2-oxoimidazolidin-1-yl)benzenesulfonamide]
< 10 nM | < 10 nM |  |  | NS(=O)(=O)c1ccc(N2CCN(c3cc(C(F)(F)F)ccc3Cl)C2=O)cc1 [Example 12, 4-(3-(2-chloro-5-(trifluoromethyl)phenyl)-2-oxoimidazolidin-1-yl)benzenesulfonamide]
< 10 nM | < 10 nM |  |  | NS(=O)(=O)c1ccc(N2CCN(c3ccc(C(F)(F)F)cc3)C2=O)cc1 [Example 8, 4-(2-oxo-3-(4-(trifluoromethyl)phenyl)imidazolidin-1-yl)benzenesulfonamide]
> 100000 nM | < 10 nM |  |  | CN1CCN(c2ccc(N3CCN(c4ccc(S(N)(=O)=O)cc4)C3=O)c(F)c2)CC1 [Example 28.2, 4-(3-(2-fluoro-4-(4-methylpiperazin-1-yl)phenyl)-2-oxoimidazolidin-1-yl)benzenesulfonamide]
 |  | ++ (“++” represents the 100 nM<Ki<10 nM) | ++ (“++” represents the 100 nM<Ki<10 nM) | NS(=O)(=O)c1ccc(N2CCN(c3cccc(F)c3)C2=O)cc1 [Example 1, 4-(3-(3-fluorophenyl)-2-oxoimidazolidin-1-yl)benzenesulfonamide]
< 10 nM | < 10 nM |  |  | NS(=O)(=O)c1ccc(N2CCN(c3cc(F)cc(F)c3)C2=O)cc1 [Example 23, 4-(3-(3,5-difluorophenyl)-2-oxoimidazolidin-1-yl)benzenesulfonamide]
 |  | ++ (“++” represents the 100 nM<Ki<10 nM) | ++ (“++” represents the 100 nM<Ki<10 nM) | NS(=O)(=O)c1ccc(N2CCN(c3ccc(Br)cc3F)C2=O)cc1 [Example 6, 4-(3-(4-bromo-2-fluorophenyl)-2-oxoimidazolidin-1-yl)benzenesulfonamide]
< 10 nM | < 10 nM |  |  | NS(=O)(=O)c1ccc(N2CCN(c3cc(C(F)(F)F)ccc3F)C2=O)cc1 [Example 13, 4-(3-(2-fluoro-5-(trifluoromethyl)phenyl)-2-oxoimidazolidin-1-yl)benzenesulfonamide]
> 100000 nM | > 100000 nM |  |  | NS(=O)(=O)c1ccc(N2CCN(c3ccc(F)cn3)C2=O)cc1 [Example 28.1, 4-(3-(5-fluoropyridin-2-yl)-2-oxoimidazolidin-1-yl)benzenesulfonamide]

Structure (SMILES) | Ki (recombinant human CAIX) | Ki (recombinant human CAXII) | Ki (nM) CAXII (recombinant human CAXII) | Ki (nM) CAIX (recombinant human CAIX)
CCCCOc1ccc(N2CCN(c3ccc(S(N)(=O)=O)cc3)C2=O)cc1 [Example 15, 4-(3-(4-butoxyphenyl)-2-oxoimidazolidin-1-yl)benzenesulfonamide] | < 10 nM |  | ++ (“++” represents the 100 nM<Ki<10 nM) | 
CCCCOc1ccc(N2CCN(c3ccc(S(N)(=O)=O)cc3)C2=O)c(F)c1 [Example 26, 4-(3-(4-butoxy-2-fluorophenyl)-2-oxoimidazolidin-1-yl)benzenesulfonamide] | < 10 nM |  | ++ (“++” represents the 100 nM<Ki<10 nM) | 
